# Data reported in ChEMBL document CHEMBL1955725, “Structure-guided lead optimization of triazolopyrimidine-ring substituents identifies potent Plasmodium falciparum dihydroorotate dehydrogenase inhibitors with clinical candidate potential” (J Med Chem, 2011).
# Columns and labels:
# [1] = Inhibition of Plasmodium berghei C-terminal hexa-His tagged DHODH expressed in Escherichia coli by DCIP reduction assay
# Plasmodium falciparum = assay: Antimalarial activity against Plasmodium falciparum 3D7 by [3H]hypoxanthine incorporation assay in presence of human serum; format: functional, organism-based
# [2] = molecular target: T1, Dihydroorotate dehydrogenase (Plasmodium falciparum, UniProt Q54A96)
# T1 sequence (Q54A96 whole entry): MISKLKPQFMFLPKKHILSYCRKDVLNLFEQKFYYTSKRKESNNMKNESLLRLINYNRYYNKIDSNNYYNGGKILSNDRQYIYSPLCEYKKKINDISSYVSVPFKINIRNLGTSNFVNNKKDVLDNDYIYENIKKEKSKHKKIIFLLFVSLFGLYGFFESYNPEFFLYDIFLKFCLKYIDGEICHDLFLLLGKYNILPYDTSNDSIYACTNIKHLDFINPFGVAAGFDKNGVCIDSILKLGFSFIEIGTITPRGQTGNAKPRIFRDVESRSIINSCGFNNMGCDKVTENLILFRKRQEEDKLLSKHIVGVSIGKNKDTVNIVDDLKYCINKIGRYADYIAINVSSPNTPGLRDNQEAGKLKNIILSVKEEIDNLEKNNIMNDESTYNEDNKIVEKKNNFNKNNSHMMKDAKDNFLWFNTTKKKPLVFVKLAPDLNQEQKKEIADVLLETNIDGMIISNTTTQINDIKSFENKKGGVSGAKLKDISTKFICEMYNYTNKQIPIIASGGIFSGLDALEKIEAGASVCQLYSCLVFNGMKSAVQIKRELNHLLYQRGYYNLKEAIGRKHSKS
# Description: Inhibition of Plasmodium falciparum C-terminal hexa-His tagged DHODH expressed in Escherichia coli by DCIP reduction assay
# Liver = assay: Intrinsic clearance in mouse liver microsomes; format: ADME, Microsome
# Liver microsomes = assay: Intrinsic clearance in human liver microsomes; format: ADME, Microsome
# [3] = molecular target: Dihydroorotate dehydrogenase (quinone), mitochondrial (Homo sapiens, UniProt Q02127)
# Sequence of Dihydroorotate dehydrogenase (quinone), mitochondrial (Q02127 whole entry): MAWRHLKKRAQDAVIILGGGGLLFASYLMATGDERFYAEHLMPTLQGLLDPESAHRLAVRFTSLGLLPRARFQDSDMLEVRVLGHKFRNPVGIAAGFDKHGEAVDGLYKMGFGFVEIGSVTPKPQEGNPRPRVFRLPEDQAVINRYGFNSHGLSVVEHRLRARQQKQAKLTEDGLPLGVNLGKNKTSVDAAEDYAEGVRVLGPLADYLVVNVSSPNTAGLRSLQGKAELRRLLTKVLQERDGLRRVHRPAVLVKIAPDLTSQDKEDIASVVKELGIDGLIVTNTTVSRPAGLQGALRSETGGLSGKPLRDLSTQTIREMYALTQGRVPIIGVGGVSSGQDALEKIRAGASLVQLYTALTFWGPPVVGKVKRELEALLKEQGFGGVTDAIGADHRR
# Description: Inhibition of human C-terminal hexa-His tagged DHODH expressed in Escherichia coli by DCIP reduction assay
# [4] = Aqueous solubility of the compound at pH 6.5; format: physicochemical
# Plasma = assay: Plasma protein binding in human by chromatographic method; format: ADME, cell-free
# [5] = Lipophilicity, log D of the compound at pH 7.4; format: physicochemical; settings: buffer
Compound,EC50 (Plasmodium falciparum) [nM],IC50 [2] [nM],other results
Cc1cc(Nc2cccc(Cl)c2)n2nc(C(C)C)nc2n1,1100,120,IC50 [1]: 570 nM
CSc1nc2nc(C)cc(Nc3cccc(Cl)c3)n2n1,150,26,
Cc1cc(Nc2ccc(C(F)(F)F)cc2)n2nc(C(F)(F)F)nc2n1,73,35,IC50 [1]: 1300 nM; Intrinsic clearance (Liver): < 6 µL/min/mg; Intrinsic clearance (Liver microsomes): < 5 µL/min/mg; IC50 [3]: > 100000 nM
Cc1cc(Nc2ccc(C(F)(F)F)cc2)n2nc(CCO)nc2n1,480,930,Intrinsic clearance (Liver): 6.9 µL/min/mg; solubility [4]: 19 µM; PPB (Plasma): 67%; logD [5]: 2.2; Intrinsic clearance (Liver microsomes): < 5 µL/min/mg
Cc1cc(Nc2cccc(Cl)c2)n2[nH]c(=O)nc2n1,,> 10000,
COCCOc1nc2nc(C)cc(Nc3ccc(Cl)cc3)n2n1,,> 10000,
Cc1cc(Nc2cccc(Cl)c2)n2nc(CO)nc2n1,> 10000,6100,
COc1nc2nc(C)cc(Nc3ccc(Cl)cc3)n2n1,590,460,IC50 [1]: 1200 nM
Cc1cc(Nc2cccc(Cl)c2)n2nc(C3CC3)nc2n1,,820,IC50 [1]: 1700 nM; IC50 [3]: > 100000 nM
COCCOc1nc2nc(C)cc(Nc3cccc(Cl)c3)n2n1,,4900,IC50 [1]: > 10000 nM
Cc1cc(Nc2cccc(Cl)c2)n2nc(CN)nc2n1,,> 10000,
CNCCOc1nc2nc(C)cc(Nc3ccc(S(F)(F)(F)(F)F)cc3)n2n1,,> 10000,
CNCc1nc2nc(C)cc(Nc3cccc(Cl)c3)n2n1,,> 10000,
Cc1cc(Nc2ccc(C(F)(F)F)cc2)n2nc(C(C)C)nc2n1,98,110,IC50 [1]: 4500 nM; IC50 [3]: > 100000 nM
Cc1cc(Nc2ccc(Cl)cc2)n2nc(OCCN)nc2n1,,> 10000,
Cc1cc(Nc2ccc(S(F)(F)(F)(F)F)cc2)n2nc(OCCN(C)C)nc2n1,,> 10000,
COc1nc2nc(C)cc(Nc3cccc(Cl)c3)n2n1,980,,IC50 [1]: 1300 nM
CSc1nc2nc(C)cc(Nc3ccc(Cl)cc3)n2n1,150,30,
CNCCOc1nc2nc(C)cc(Nc3ccc(Cl)cc3)n2n1,,> 10000,
Cc1cc(Nc2ccc(C(F)(F)F)cc2)n2nc(S(C)(=O)=O)nc2n1,170,90,
Cc1cc(Nc2cccc(Cl)c2)n2nc(OCCN(C)C)nc2n1,,> 10000,

Compound,EC50 (Plasmodium falciparum) [nM],IC50 [2] [nM],other results
CNCCOc1nc2nc(C)cc(Nc3cccc(Cl)c3)n2n1,,> 10000,
Cc1cc(Nc2ccc(Cl)cc2)n2nc(CN(C)C)nc2n1,,> 10000,
Cc1cc(Nc2ccc(C(F)(F)F)cc2)n2nc(CC3CC3)nc2n1,3400,1700,
Cc1cc(Nc2ccc(Cl)cc2)n2nc(OCCN(C)C)nc2n1,,> 10000,
COCCc1nc2nc(C)cc(Nc3ccc(Cl)cc3)n2n1,,> 10000,
COCc1nc2nc(C)cc(Nc3ccc(Cl)cc3)n2n1,,2200,
Cc1cc(Nc2ccc(S(F)(F)(F)(F)F)cc2)n2nc(C(C)C)nc2n1,420,100,IC50 [1]: 3800 nM; IC50 [3]: > 100000 nM
CCC(C)c1nc2nc(C)cc(Nc3ccc(C(F)(F)F)cc3)n2n1 (stereo not drawn),270,380,IC50 [1]: 4600 nM; IC50 [3]: > 100000 nM
CCC(C)c1nc2nc(C)cc(Nc3ccc(S(F)(F)(F)(F)F)cc3)n2n1 (stereo not drawn),510,330,IC50 [1]: 4500 nM; IC50 [3]: > 100000 nM
Cc1cc(Nc2ccc(C(F)(F)F)cc2)n2nc(C(C)(C)C)nc2n1,290,460,IC50 [1]: 15000 nM; IC50 [3]: > 100000 nM
CCOc1nc2nc(C)cc(Nc3cccc(Cl)c3)n2n1,4400,400,IC50 [1]: 1900 nM; IC50 [3]: > 100000 nM
CCOc1nc2nc(C)cc(Nc3ccc(Cl)cc3)n2n1,1300,270,IC50 [1]: 1600 nM; IC50 [3]: > 100000 nM
Cc1cc(Nc2cccc(Cl)c2)n2ncnc2n1,,,logD [5]: 2.4
Cc1cc(Nc2ccc(Cl)cc2)n2nc(CC3CC3)nc2n1,,12000,
Cc1cc(Nc2ccc(S(F)(F)(F)(F)F)cc2)n2nc(C(C)(C)C)nc2n1,2300,550,IC50 [1]: 16000 nM; IC50 [3]: > 100000 nM
Cc1cc(Nc2cccc(Cl)c2)n2nc(CC(C)C)nc2n1,,> 10000,
CNCCc1nc2nc(C)cc(Nc3ccc(Cl)cc3)n2n1,> 2500,> 10000,
Cc1cc(Nc2ccc(Cl)cc2)n2nc(CO)nc2n1,> 2500,5300,
Cc1cc(Nc2ccc(Cl)cc2)n2nc(C3CC3)nc2n1,6800,880,IC50 [1]: 2800 nM; IC50 [3]: > 100000 nM
Cc1cc(Nc2ccc(C(F)(F)F)cc2)n2nc(OCCN(C)C)nc2n1,,> 10000,
Cc1cc(Nc2ccc(Cl)cc2)n2nc(CCN)nc2n1,,> 10000,

Compound,EC50 (Plasmodium falciparum) [nM],IC50 [2] [nM],other results
Cc1cc(Nc2ccc(Cl)cc2)n2nc(S(C)(=O)=O)nc2n1,1400,45,
CNCCOc1nc2nc(C)cc(Nc3ccc(C(F)(F)F)cc3)n2n1,,> 10000,
Cc1cc(Nc2ccc(S(F)(F)(F)(F)F)cc2)n2nc(CC3CC3)nc2n1,> 10000,5700,
Cc1cc(Nc2ccc(S(F)(F)(F)(F)F)cc2)n2nc(C(F)(F)F)nc2n1,140,30,IC50 [1]: 2500 nM; Intrinsic clearance (Liver): < 6 µL/min/mg; solubility [4]: 30 µM; logD [5]: 3.7; Intrinsic clearance (Liver microsomes): < 5 µL/min/mg
Cc1cc(Nc2ccc(S(F)(F)(F)(F)F)cc2)n2nc(CC(C)C)nc2n1,,> 10000,
Cc1cc(Nc2ccc(S(F)(F)(F)(F)F)cc2)n2nc(S(C)(=O)=O)nc2n1,2000,110,
CCC(F)(F)c1nc2nc(C)cc(Nc3cccc(Cl)c3)n2n1,1200,30,IC50 [1]: 1400 nM; IC50 [3]: > 100000 nM
Cc1cc(Nc2ccc(C(F)(F)F)cc2)n2nc(OCCN)nc2n1,,> 10000,
COCCc1nc2nc(C)cc(Nc3cccc(Cl)c3)n2n1,,> 10000,
Cc1cc(Nc2cccc(Cl)c2)n2nc(OCCN)nc2n1,,> 10000,
COCc1nc2nc(C)cc(Nc3cccc(Cl)c3)n2n1,,1700,
CCC(F)(F)c1nc2nc(C)cc(Nc3ccc(Cl)cc3)n2n1,94,34,IC50 [1]: 1800 nM; IC50 [3]: > 100000 nM
CNCCc1nc2nc(C)cc(Nc3cccc(Cl)c3)n2n1,> 2500,> 10000,
Cc1cc(Nc2ccc(C(F)(F)F)cc2)n2nc(CC(C)C)nc2n1,,2000,
Cc1cc(Nc2ccc(Cl)cc2)n2nc(CC(C)C)nc2n1,,> 10000,
Cc1cc(Nc2cccc(Cl)c2)n2nc(CN(C)C)nc2n1,,> 10000,
Cc1cc(Nc2ccc(Cl)cc2)n2[nH]c(=O)nc2n1,,> 10000,
Cc1cc(Nc2cccc(Cl)c2)n2nc(CC3CC3)nc2n1,,> 10000,
Cc1cc(Nc2cccc(Cl)c2)n2nc(S(C)(=O)=O)nc2n1,> 2500,160,
Cc1cc(Nc2ccc(Cl)cc2)n2nc(CN)nc2n1,,> 10000,
CNCc1nc2nc(C)cc(Nc3ccc(Cl)cc3)n2n1,,> 10000,
